These results are taken from US20180000768A1, “INTESTINAL FXR AGONISM ENHANCES GLP-1 SIGNALING TO RESTORE PANCREATIC BETA CELL FUNCTIONS” (Salk Institute for Biological Studies, priority 2015, published 2018).

The subject of one test is isolated islets. The test is described as follows: gene expression after direct ex vivo treatment of isolated islets. As to conditions: 24 hours ex vivo, XL335 1 μM, Fex 1 μM. Type of test: cell-based, mouse. Here is the method: Leptin-deficient ob/ob mice were treated daily with vehicle, Fex, or the analogue Fex-D (50 mg/kg) via P.O. for 14 days (A) Chemical structures of fexaramine and Fex-D (B) Schematic of the experimental design (C) Serum glucose levels (D) Glucose tolerance test (E) Insulin secretion in vivo (F) GLP-1 secretion in vivo (G) Heatmap showing hierarchal clustering of gene expression changes in islet induced by Fex (100 mg/kg, 4 wks) and FexD (50 mg/kg, 2 weeks) treatment in ob/ob mice (in vivo); by treatment of islets with XL335 (1 μM), Fex (1 μM), mFgf15 and hFgf19 (24 hours ex vivo); and mFgf15 (0.15 mg/kg, 2 weeks) and INT777 (Tgr5, 60 mg/kg, 4 weeks) treatment of ob/ob mice (in vivo). Gene expression was measured by RNA-Seq and changes are expressed as Z-score. (H) Ven diagram of changes in gene expression in pancreatic islets induced by FEX (100 mg/kg for 5 weeks) and FEX-D (50 mg/kg for 14 days). […] Data represent the mean±STD. Statistical analysis was performed with the Student's t test. *p<0.05, **p<0.01.
Next, primary islets were isolated from mice treated by Fex-D to compare gene expression changes.

Test [1] concerns ob/ob mice. Briefly: gene expression (RNA-Seq, QPCR) in tissues of treated ob/ob mice. It counts as in vivo, mouse. Here is the method: Total RNA was isolated from cell pellets treated with RNAlater using the RNA mini kit (Qiagen) and treated with DNaseI (Qiagen) for 30 minutes at room temperature. Sequencing libraries were prepared from 100-500 ng total RNA using the TruSeq RNA Sample Preparation Kit v2 (Illumina) according to the manufacturer's protocol. Briefly, mRNA was purified, fragmented, and used for first-, then second-strand cDNA synthesis followed by adenylation of 3′ ends. Samples were ligated to unique adapters and subjected to PCR amplification. Mulitplexed libraries were then validated using the 2100 BioAnalyzer (Agilent), normalized, and pooled for sequencing. RNA-Seq libraries prepared from two biological replicates for each experimental condition were sequenced on the Illumina HiSeq 2500 using bar-coded multiplexing and a 100 bp read length.
Image analysis and base calling were performed with Illumina CASAVA-1.8.2. This yielded a median of 29.9M usable reads per sample. Short read sequences were mapped to a UCSC mm9 reference sequence using the RNA-seq aligner STAR. Known splice junctions from mm9 were supplied to the aligner and de novo junction discovery was also permitted. Differential gene expression analysis, statistical testing and annotation were performed using Cuffdiff 2. Transcript expression was calculated as gene-level relative abundance in fragments per kilobase of exon model per million mapped fragments and employed correction for transcript abundance bias. RNA-Seq results for genes of interest were also explored visually using the UCSC Genome Browser.

The subject of test [2] is ob/ob mice. Briefly: in vivo glucose-stimulated insulin secretion (GSIS). Also noted: species or system mouse. As to conditions: Fex 100 mg/kg daily P.O., 5 weeks. As to the method:
Insulin resistance can be associated with reduced […] insulin secretion in response to glucose, while GLP-1 augments glucose-stimulated insulin secretion (GSIS). To examine whether Fex treatment improves GSIS, serum insulin levels were determined after a glucose challenge in ob/ob mice.

For another test, the system named is enteroendocrinal L cells. The test is described as follows: Gene expression analysis (QPCR) in enteroendocrinal L cells. It counts as cell-based, human.
Test [3] relates to pancreatic islets from ob/ob mice. Briefly: Insulin secretion assay on isolated pancreatic islets (ex vivo). Type of test: cell-based, mouse. As to conditions: islets from Fex-treated mice. Here is the method:
Mouse pancreatic islets were isolated from ob/ob mice according to a method used for rats traditionally. Briefly, 0.5 mg/ml collagenase P (Roche) diluted in HBSS buffer was injected through the common bile duct and the perfused pancreas was dissected and incubated in water bath with 37° C. for 21 minutes. Digested exocrine cells and intact islets were separated using Histopaque-1077 (SIGMA) with centrifugation by 900 g for 15 minutes and intact islets were picked up manually.
Insulin release from intact islets was monitored using batch incubation methods.
Isolated pancreatic islets were cultured over-night with […] supplemented with 10% (v/v) fetal bovine serum and 1% (v/v) Antibiotics-antimycotic solution, were pre-cultured at 37° C. for 30 minutes in Krebs Ringer bicarbonate buffer (KRBH) containing 129.4 mM NaCl, 3.7 mM KCl, 2.7 mM CaCl2, 1.3 mM KH2PO4, 1.3 mM MgSO4, 24.8 mM NaHCO3 (equilibrated with 5% CO2, 95% O2, pH7.4), 10 mM HEPES and 0.2% (v/v) BSA (fraction V) with 3 mM glucose. N ext, the pancreatic islets were incubated for 30 minutes KRBH buffer (500 μl/10 islets) with 3 mM or 20 mM glucose with or without 100 nM Exendin-4 to determine insulin secretion levels. At the end of the incubation period, islets were pelleted by centrifugation, and aliquots of the buffer were sampled. The amounts of insulin were determined by Rat/mouse Insulin ELISA KIT (Millipore) for mice islets.

Entries after “also recorded” stand apart in the source; their conditions may differ.

On to `COC(=O)/C=C/c1cccc(N(Cc2ccc(-c3ccc(N(C)C)cc3)cc2)C(=O)C2CCCCC2)c1` [Fexaramine], for which the “transcriptional changes seen in islets in vivo with Fex and Fex-D” value in the test on isolated islets is recorded as “not observed”. Further, the “FXR target genes SHP and FGF15 in the intestine” value with ob/ob mice [1] (Fex 100 mg/kg daily P.O., 5 weeks, ileum) is “markedly upregulated”. In addition, the “expression of the GLP-1 receptor in islets” value with ob/ob mice [1] (Fex 100 mg/kg for 5 weeks, listed as Fex) is recorded as “increased expression; also recorded: significantly increased”. The “serum insulin after a glucose challenge” value in the test on ob/ob mice [2] is recorded as “significant increase”. For the same compound, in the test on enteroendocrinal L cells, the DPP4 expression result is “no effect” and the proglucagon expression entry is reported as “no effect”. Besides, the “SHP expression (FXR target gene)” value with enteroendocrinal L cells (listed as Fex) was “induced; also recorded: induction”. For the same compound, in test [3], the “ex vivo insulin secretion in response to 20 mM glucose” value is reported as “dramatically increased” and the “insulin content in ex vivo islets” value is listed as “significantly higher”.
